The values below come from patent publication US20240150423A1, “GLP-1 ANALOGUE-MODIFIED DIMERS WITH DIFFERENT CONFIGURATIONS, PREPARATION METHOD THEREOF, AND APPLICATION THEREOF IN TREATMENT OF TYPE II DIABETES” (Nanjing Finepeptide Biopharmaceutical Co.,Ltd, priority 2019, published 2024).

Non-standard residues stand in square brackets, D forms with d. No end group written: not given here. bAib = not defined here; βAla = NCCC(=O)O

For this assay, the system named is Normal Kunming (KM) mice. Briefly: multiple OGTT (mOGTT): hypoglycemic duration after a single administration. In kind it is in vivo. To be noted: single injection at the same dose (1.126 nmol), subcutaneous. An excerpt:
• 1. Methods: Normal Kunming (KM) mice (purchased from Guangdong Animal Center) were used for oral glucose tolerance test (OGTT) to obtain the hypoglycemic activity and durability of drug. […] The blood glucose meter and blood glucose test paper were from Bayer […]. The average blood glucose of each group was used as an evaluation standard: When the average blood glucose of experimental group was higher than that of the NaCl control group for two times, the measurement stopped and the hypoglycemic period compared to the blank control group was the effective duration. • 2. Results • 2.1 single OGTTs: after a single administration, the mice were orally administered glucose once and measured the blood glucose from the tail blood at 0, 10, 20, 40, 60 and 120 min. […] The duration of each monomer group was about 1⁄2-1⁄4 of the duration of its corresponding dimer group. […] Therefore, the 2G3 peptide was selected for treating type II diabetes (T2D) in vivo and subsequent experiments.

Take “2G5 series 44: disulfide-linked homodimer of monomer SEQ ID NO: 44 (HXEGTFTSDVSCYLEGQAAXEFIAWLVXGRG; disulfide-linked homodimer; Sequence is synthesized; (2)..(2) Xaa is bAla; (20)..(20) Xaa is 26Lys[N-e-(N-a-palmitoyl-L-g-glutamyl)]; (28)..(28) Xaa is 26Lys[N-e-(N-a-palmitoyl-L-g-glutamyl)]; (31)..(31) N-terminal)”: the “Hypoglycemic duration” value stood at 6 days.

Consider “2G6 series 49: disulfide-linked homodimer of monomer SEQ ID NO: 49 (HXEGTFTSDVSCYLEGQAAXEFIAWLVRGRG; disulfide-linked homodimer; Sequence is synthesized; (2)..(2) Xaa is bAib; (20)..(20) Xaa is 26Lys[N-e-(N-a-oleoyl-L-g-glutamyl)]; (31)..(31) N-terminal)”, for which the “Hypoglycemic duration” value is 17 days.

Regarding “2G6 series 50: disulfide-linked homodimer of monomer SEQ ID NO: 50 (HXEGTFTSDVSCYLEGQAAXEFIAWLVRGRG; disulfide-linked homodimer; Sequence is synthesized; (2)..(2) Xaa is bAla; (20)..(20) Xaa is 26Lys[N-e-(N-a-oleoyl-L-g-glutamyl)]; (31)..(31) N-terminal)”, the “Hypoglycemic duration” value is given as 16 days.

Turning to “2G7 series 54: disulfide-linked homodimer of monomer SEQ ID NO: 54 (H[bAib]EGTFTSDVSCYLEGQAAKEFIAWLVR[bAib]R-NH2; reading uncertain; also: disulfide-linked homodimer, disulfide at 12, other end not in the chain, printed as His-βAib-Glu-Gly-Thr-Phe-Thr-Ser-Asp-Val-Ser-Cys-Tyr-Leu-Glu-Gly-Gln-Ala-Ala-Lys-Glu-Phe-Ile-Ala-Trp-Leu-Val-Arg-βAib-Arg-NH2)”, the “Hypoglycemic duration” value is given as 5 days.

Turning to “2G7 series 55: disulfide-linked homodimer of monomer SEQ ID NO: 55 (H[βAla]EGTFTSDVSCYLEGQAAKEFIAWLVR[βAla]R-NH2; also: disulfide-linked homodimer, disulfide at 12, other end not in the chain)”, the “Hypoglycemic duration” value was 4 days.

For “2G8 series 56: disulfide-linked homodimer of monomer SEQ ID NO: 56 (HAEGTFTCDVSSYLEGQAAXEFIAWLVRGRG; disulfide-linked homodimer; Sequence is synthesized; (20)..(20) Xaa is 26Lys[N-e-(N-a-palmitoyl-L-g-glutamyl)]; (31)..(31) C-terminal)”, the “Hypoglycemic duration” value is given as 2 days.

As for “2G8 series 57: disulfide-linked homodimer of monomer SEQ ID NO: 57 (HAEGTFTCDVSSYLEGQAAXEFIAWLVRGRG; disulfide-linked homodimer; Sequence is synthesized; (20)..(20) Xaa is 26Lys[N-e-(N-a-palmitoyl-L-g-glutamyl)]; (31)..(31) N-terminal)”, the “Hypoglycemic duration” value is 5 days.

For the substance “2G8 series 58: disulfide-linked homodimer of monomer SEQ ID NO: 58 (HAEGTFTCDVSSYLEGQAAXEFIAWLVRGRG; disulfide-linked homodimer; Sequence is synthesized; (20)..(20) Xaa is 26Lys[N-e-(N-a-oleoyl-L-g-glutamyl)]; (31)..(31) C-terminal)”, the “Hypoglycemic duration” value turned out to be 3 days.

With “2G8 series 59: disulfide-linked homodimer of monomer SEQ ID NO: 59 (HAEGTFTCDVSSYLEGQAAXEFIAWLVRGRG; disulfide-linked homodimer; Sequence is synthesized; (20)..(20) Xaa is 26Lys[N-e-(N-a-oleoyl-L-g-glutamyl)]; (31)..(31) N-terminal)”, the “Hypoglycemic duration” value was 5 days.
